Data taken from ChEMBL document CHEMBL4002588, “2,4-Disubstituted quinazolines as amyloid-β aggregation inhibitors with dual cholinesterase inhibition and antioxidant properties: Development and structure-activity relationship (SAR) studies” (Eur J Med Chem, 2017).
Activity calls are given as the source filed them. The calls are words filed in the database; no cut-off is given here.

Tests used:
[1] = molecular target: T1, Amyloid-beta precursor protein (Homo sapiens, UniProt P05067); experiment: Inhibition of HFIP-induced human recombinant amyloid beta (1 to 42 residues) aggregation expressed in Escherichia coli at 25 uM measured over 24 hrs by ThT-based fluorescence spectroscopic method relative to control
[2] = molecular target: T1, Amyloid-beta precursor protein
Description: Inhibition of HFIP-induced human recombinant amyloid beta (1 to 40 residues) aggregation expressed in Escherichia coli measured over 24 hrs by ThT-based fluorescence spectroscopic method

[3] = molecular target: T1, Amyloid-beta precursor protein; experiment: Potency index, ratio of curcumin IC50 to test compound IC50 for HFIP-induced human recombinant amyloid beta (1 to 40 residues) aggregation
[4] = molecular target: T1, Amyloid-beta precursor protein; experiment: Inhibition of HFIP-induced human recombinant amyloid beta (1 to 40 residues) aggregation expressed in Escherichia coli at 25 uM measured over 24 hrs by ThT-based fluorescence spectroscopic method relative to control
Cholinesterase [5] = molecular target: T2, Cholinesterase (Homo sapiens, UniProt P06276)
Description: Inhibition of human BuChE using S-butyrylthiocholine iodide as substrate preincubated for 5 mins followed by substrate addition measured for 60 to 300 secs by Ellman's method

Acetylcholinesterase = Acetylcholinesterase (Homo sapiens, UniProt P22303)
Description: Inhibition of human AChE using acetylthiocholine iodide as substrate preincubated for 5 mins followed by substrate addition measured for 60 to 300 secs by Ellman's method

[6] = Antioxidant activity assessed as DPPH radical scavenging activity at 50 uM relative to control; format: functional
[7] = Potency index, ratio of test compound to resveratrol antioxidant activity assessed as DPPH radical scavenging activity
[8] = molecular target: T1, Amyloid-beta precursor protein; experiment: Inhibition of HFIP-induced human recombinant amyloid beta (1 to 42 residues) aggregation expressed in Escherichia coli assessed as reduction in amyloid beta fibril load measured after 24 hrs by ThT fluorescence assay
[9] = molecular target: T1, Amyloid-beta precursor protein; experiment: Inhibition of HFIP-induced human recombinant amyloid beta (1 to 42 residues) aggregation expressed in Escherichia coli assessed as reduction in amyloid beta fibril load at 25 uM after 24 hrs by transmission electron microscopic method
[10] = molecular target: T1, Amyloid-beta precursor protein; remark: listed apart in the source
Description: Inhibition of HFIP-induced human recombinant amyloid beta (1 to 42 residues) aggregation expressed in Escherichia coli measured over 24 hrs by ThT-based fluorescence spectroscopic method

Cholinesterase [11] = molecular target: T2, Cholinesterase; experiment: Potency index, ratio of donepezil IC50 to test compound IC50 for human BuChE
[12] = molecular target: T1, Amyloid-beta precursor protein; experiment: Potency index, ratio of resveratrol IC50 to test compound IC50 for HFIP-induced human recombinant amyloid beta (1 to 42 residues) aggregation
[13] = molecular target: T1, Amyloid-beta precursor protein; experiment: Inhibition of HFIP-induced human recombinant amyloid beta (1 to 40 residues) aggregation expressed in Escherichia coli assessed as reduction in amyloid beta fibril load measured after 24 hrs by ThT fluorescence assay
[14] = molecular target: T1, Amyloid-beta precursor protein; experiment: Inhibition of HFIP-induced human recombinant amyloid beta (1 to 40 residues) aggregation expressed in Escherichia coli assessed as reduction in amyloid beta fibril load at 25 uM after 24 hrs by transmission electron microscopic method
[15] = molecular target: T1, Amyloid-beta precursor protein; experiment: Potency index, ratio of curcumin IC50 to test compound IC50 for HFIP-induced human recombinant amyloid beta (1 to 42 residues) aggregation

Sequence of Acetylcholinesterase (P22303 whole entry): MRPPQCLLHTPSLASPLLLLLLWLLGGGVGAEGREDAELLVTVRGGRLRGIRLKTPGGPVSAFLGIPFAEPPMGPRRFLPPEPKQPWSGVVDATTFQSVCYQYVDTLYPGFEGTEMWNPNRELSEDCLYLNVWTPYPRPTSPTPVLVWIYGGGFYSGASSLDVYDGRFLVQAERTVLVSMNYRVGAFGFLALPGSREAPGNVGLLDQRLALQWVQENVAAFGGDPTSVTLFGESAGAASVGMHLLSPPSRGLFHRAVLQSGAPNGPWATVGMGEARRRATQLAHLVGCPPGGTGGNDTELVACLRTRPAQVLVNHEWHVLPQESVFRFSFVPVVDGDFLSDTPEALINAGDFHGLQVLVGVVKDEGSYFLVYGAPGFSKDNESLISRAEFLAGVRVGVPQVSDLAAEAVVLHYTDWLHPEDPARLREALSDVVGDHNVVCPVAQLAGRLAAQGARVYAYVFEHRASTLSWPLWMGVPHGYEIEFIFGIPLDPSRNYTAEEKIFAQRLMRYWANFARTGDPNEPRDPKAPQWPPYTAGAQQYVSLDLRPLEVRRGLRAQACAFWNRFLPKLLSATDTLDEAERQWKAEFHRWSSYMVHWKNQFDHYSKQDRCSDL
T1 sequence (P05067 whole entry, the tested form may be a part): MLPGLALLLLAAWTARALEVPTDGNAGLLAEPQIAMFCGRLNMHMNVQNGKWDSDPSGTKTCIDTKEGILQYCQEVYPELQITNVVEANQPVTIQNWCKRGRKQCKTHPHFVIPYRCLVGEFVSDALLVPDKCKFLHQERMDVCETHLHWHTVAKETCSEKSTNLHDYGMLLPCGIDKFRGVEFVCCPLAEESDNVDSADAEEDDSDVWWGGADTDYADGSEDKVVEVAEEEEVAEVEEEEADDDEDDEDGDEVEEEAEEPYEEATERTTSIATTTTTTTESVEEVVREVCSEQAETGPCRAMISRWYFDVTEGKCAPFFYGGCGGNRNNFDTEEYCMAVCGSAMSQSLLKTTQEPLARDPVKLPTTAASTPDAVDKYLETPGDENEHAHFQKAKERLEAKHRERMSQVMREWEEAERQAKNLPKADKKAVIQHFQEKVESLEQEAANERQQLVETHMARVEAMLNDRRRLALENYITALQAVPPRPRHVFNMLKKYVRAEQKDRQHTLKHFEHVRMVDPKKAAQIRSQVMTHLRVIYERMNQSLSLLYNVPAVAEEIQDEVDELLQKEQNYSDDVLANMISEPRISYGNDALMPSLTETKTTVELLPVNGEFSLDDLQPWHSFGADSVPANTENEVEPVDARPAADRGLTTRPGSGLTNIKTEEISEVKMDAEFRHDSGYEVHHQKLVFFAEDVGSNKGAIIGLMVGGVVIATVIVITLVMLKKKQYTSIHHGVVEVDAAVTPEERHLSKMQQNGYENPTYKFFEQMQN
T2 sequence (P06276 whole entry): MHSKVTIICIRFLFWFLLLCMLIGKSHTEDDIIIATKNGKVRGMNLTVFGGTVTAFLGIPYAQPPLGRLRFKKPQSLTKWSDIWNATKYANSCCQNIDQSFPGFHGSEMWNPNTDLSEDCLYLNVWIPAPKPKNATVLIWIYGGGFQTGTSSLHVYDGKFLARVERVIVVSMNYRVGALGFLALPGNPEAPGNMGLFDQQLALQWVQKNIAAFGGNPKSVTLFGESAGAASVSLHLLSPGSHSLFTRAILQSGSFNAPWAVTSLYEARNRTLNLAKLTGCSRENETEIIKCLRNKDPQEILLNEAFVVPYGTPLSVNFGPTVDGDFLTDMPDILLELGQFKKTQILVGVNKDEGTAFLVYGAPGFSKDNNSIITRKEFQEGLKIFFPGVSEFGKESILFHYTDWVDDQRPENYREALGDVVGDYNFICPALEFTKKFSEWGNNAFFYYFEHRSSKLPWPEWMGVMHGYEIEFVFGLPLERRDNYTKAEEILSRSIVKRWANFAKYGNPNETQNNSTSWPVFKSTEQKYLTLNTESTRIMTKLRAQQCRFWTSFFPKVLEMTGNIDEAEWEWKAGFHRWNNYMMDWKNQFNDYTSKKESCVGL

SMILES | inhibition [1] | IC50 [2] [µM] | inhibition [4] [%] | IC50 (Cholinesterase [5]) [µM] | IC50 (Acetylcholinesterase) [µM] | other results
COc1ccc(CNc2nc(NC3CCN(Cc4ccccc4)CC3)nc3ccccc23)cc1OC | 27% | 2.3 | > 50 | – | – | Ratio IC50 [3]: 1.3
CNc1nc(NCc2ccc(OC)c(OC)c2)c2ccccc2n1 | – | – | – | 30.5 | 7.3 | –
COc1ccc(CNc2nc(NC(C)=O)nc3ccccc23)cc1OC | < 10% | 3.1 | > 50 | > 50 | 8.5 | –
Cc1c(C)c2c(c(C)c1O)CCC(C)(C(=O)O)O2 (configuration not stated) | – | – | – | – | – | Activity [6]: 99.6%
Nc1nc(NCc2ccccc2)c2ccccc2n1 | < 10% | – | > 50 | – | – | –
CCCNc1nc(NCc2ccccc2)c2ccccc2n1 | 26% | 5 | > 50 | 14.4 | 7.8 | –
COc1ccc(CCNc2ncnc3ccccc23)cc1OC | 36% | 12 | > 50 | – | – | –
COc1ccc(CNc2nc(NC(N)=O)nc3ccccc23)cc1OC | 40% | 8.3 | > 50 | > 50 | 8.6 | –
CNc1nc(NCc2ccccc2)c2ccccc2n1 | – | – | – | 18.8 | 8 | –
COc1ccc(CNc2nc(O)nc3ccccc23)cc1OC | < 10% | 7.8 | > 50 | – | – | Ratio [7]: 1.5; Activity [6]: 63.4%
CC(C)Nc1nc(NCc2ccccc2)c2ccccc2n1 | 13% | 4.4 | > 50 | 11.7 | 6.4 | –
Clc1nc(NCCc2ccccc2)c2ccccc2n1 | 36% | 5 | > 50 | – | – | –
COc1ccc(CCNc2nc(CC(N)=O)nc3ccccc23)cc1OC | – | – | – | > 50 | 12.5 | –
COc1ccc(CNc2nc(CC(N)=O)nc3ccccc23)cc1OC | – | – | – | > 50 | 7.4 | –
COc1ccc(CCNc2nc(Cl)nc3ccccc23)cc1OC | – | 8.2 | > 50 | – | – | inhibition [8]: Dose-dependent effect; inhibition [9]: Active; IC50 [10]: 13 µM
Nc1nc(NCCc2ccccc2)c2ccccc2n1 | 37% | – | > 50 | – | – | –
CC(C)Nc1nc(NCCc2ccccc2)c2ccccc2n1 | inactive | 3.8 | > 50 | 1.6 | 7.2 | Ratio IC50 (Cholinesterase [11]): 2.3
Nc1nc(NCCc2ccccc2)nc2ccccc12 | 50% | – | > 50 | – | – | inhibition [8]: Dose-dependent effect; inhibition [9]: Active; Ratio IC50 (Cholinesterase [11]): 1.5
NC(=O)Cc1nc(NCCc2ccccc2)c2ccccc2n1 | – | – | – | 3.5 | 7.3 | –
Nc1nc(NCc2ccccc2)nc2ccccc12 | – | – | > 50 | – | – | inhibition [8]: Dose-dependent effect; inhibition [9]: Active; Ratio IC50 [12]: 1.8; Ratio IC50 [3]: 1.2 to 1.4
CNc1nc(NCCc2ccccc2)c2ccccc2n1 | 40% | 2 | > 50 | 5 | 8.7 | –
c1ccc(CNc2nc(NC3CC3)nc3ccccc23)cc1 | 31% | 5.7 | > 50 | 22 | 6.6 | –
Oc1ccc(/C=C/c2cc(O)cc(O)c2)cc1 | – | – | – | – | – | Activity [6]: 41.9%
CCNc1nc(NCc2ccc(OC)c(OC)c2)c2ccccc2n1 | – | – | – | 25 | 6.3 | –
CCCNc1nc(NCCc2ccccc2)c2ccccc2n1 | 33% | 4.4 | > 50 | 5 | 7.2 | –
c1ccc(CCNc2nc(NC3CC3)nc3ccccc23)cc1 | 22% | 0.79 | > 50 | 11.4 | 8.6 | inhibition [13]: Dose-dependent effect; inhibition [14]: Active; Ratio IC50 [3]: 4.1

SMILES | inhibition [1] | IC50 [2] [µM] | inhibition [4] [%] | IC50 (Cholinesterase [5]) [µM] | IC50 (Acetylcholinesterase) [µM] | other results
COc1ccc(CCNc2nc(NC3CC3)nc3ccccc23)cc1OC | 25% | 4.9 | > 50 | 5.6 | 7.2 | –
COc1ccc(CNc2nc(N)nc3ccccc23)cc1OC | 34% | 8.4 | > 50 | – | – | –
CC(=O)Nc1nc(NCCc2ccccc2)c2ccccc2n1 | – | – | – | > 50 | 7 | –
Clc1nc(NCc2ccccc2)c2ccccc2n1 | 22% | 16.7 | > 50 | – | – | –
COc1ccc(CCNc2nc(NC(C)=O)nc3ccccc23)cc1OC | – | – | – | > 50 | 7.4 | –
Oc1nc(NCCc2ccccc2)c2ccccc2n1 | inactive | 11.2 | > 50 | – | – | Activity [6]: 51.5%
CCCNc1nc(NCc2ccc(OC)c(OC)c2)c2ccccc2n1 | inactive | 1.7 | > 50 | 30.4 | 5.6 | –
COc1ccc(CCNc2nc(NC(N)=O)nc3ccccc23)cc1OC | 33% | 14.4 | > 50 | > 50 | 8.7 | –
COc1ccc(CCNc2nc(N)nc3ccccc23)cc1OC | 45% | 2.7 | > 50 | – | – | –
Oc1nc(NCc2ccccc2)c2ccccc2n1 | 24% | 0.27 | > 50 | – | – | inhibition [13]: Dose-dependent effect; Ratio IC50 [15]: 12; inhibition [14]: Active; Ratio IC50 [12]: 4; Activity [6]: 47%
COc1ccc(CCNc2nc(NC(C)C)nc3ccccc23)cc1OC | – | – | – | 7.8 | 7.6 | –
CC(=O)Nc1nc(NCc2ccccc2)c2ccccc2n1 | 31% | 1.9 | > 50 | > 50 | 7.5 | –
NC(=O)Cc1nc(NCc2ccccc2)c2ccccc2n1 | – | – | – | > 50 | 7.2 | –
CCNc1nc(NCCc2ccccc2)c2ccccc2n1 | 47% | 1.4 | > 50 | 3.2 | 7.6 | inhibition [13]: Dose-dependent effect; inhibition [14]: Active
NC(=O)Nc1nc(NCCc2ccccc2)c2ccccc2n1 | 46% | 1 | > 50 | > 50 | 7.9 | inhibition [13]: Dose-dependent effect; inhibition [14]: Active
COc1ccc(CNc2nc(N=[N+]=[N-])nc3ccccc23)cc1OC | < 10% | 7.2 | > 50 | – | – | –
COc1ccc(CCNc2nc(O)nc3ccccc23)cc1OC | 32% | 10.4 | > 50 | – | – | Activity [6]: 33.9%
COc1ccc(CNc2nc(NC(C)C)nc3ccccc23)cc1OC | – | – | – | 29.8 | 6.8 | –
CCNc1nc(NCc2ccccc2)c2ccccc2n1 | 24% | 7 | > 50 | 15.2 | 7.5 | –
COc1ccc(CNc2nc(NC3CC3)nc3ccccc23)cc1OC | 20% | 8.3 | > 50 | 29.8 | 7.2 | –
NC(=O)Nc1nc(NCc2ccccc2)c2ccccc2n1 | 48% | 13.3 | > 50 | > 50 | 8.3 | –
CNc1nc(NCCc2ccc(OC)c(OC)c2)c2ccccc2n1 | 23.1% | 6.6 | > 50 | 4.5 | 8.5 | inhibition [8]: Dose-dependent effect; inhibition [9]: Active
c1ccc(CCNc2ncnc3ccccc23)cc1 | 32% | 11.9 | > 50 | – | – | –
[N-]=[N+]=Nc1nc(NCc2ccccc2)c2ccccc2n1 | 37% | 2.6 | > 50 | – | – | –
CCCNc1nc(NCCc2ccc(OC)c(OC)c2)c2ccccc2n1 | 14% | 4.3 | > 50 | 24.9 | 7 | –
CCNc1nc(NCCc2ccc(OC)c(OC)c2)c2ccccc2n1 | 41% | 2.9 | > 50 | 14 | 7.5 | –
